Reference: patent US6255100A, “Cyclosporin fermentation process” (Novartis AG, priority 1990, dated 2001)
Where two headings read alike, the source gives them in different places. Non-standard residues stand in square brackets, D forms with d. Residues, ends and D or L forms follow the SMILES beside them. MeBmt = C/C=C/C[C@@H](C)[C@@H](O)[C@H](NC)C(=O)O; NMeL = CN[C@@H](CC(C)C)C(=O)O; NMeV = CN[C@H](C(=O)O)C(C)C; dNMeA = CN[C@H](C)C(=O)O

Test system: MT4 cells
Assay: Cytotoxicity in MT4-cells (MTT)
Protocol: To evaluate the anti-HIV potential in additional cell lines and particularly in a monocytic cell line (U937), cellular toxicity of the test compound to these cell lines is first assessed. Jurkat and U937 cell suspensions are adjusted to 1×10^5 cells/ml and incubated in the presence of various concentrations of test compound. After 48 hours the amounts of cells per ml are compared by staining with MTT. Cytoxicity in MT4 cells may be measured in the same way.
The significance of these numbers and the appropriate methods are discussed supra.

| Structure (SMILES) | Cytotoxicity | Cytotoxicity (MT4-cells, MTT staining) |
| --- | --- | --- |
| CCCC[C@@H](C)[C@@H](O)[C@H]1C(=O)N[C@@H](CC)C(=O)N(C)CC(=O)N(C)[C@@H](CC(C)(C)O)C(=O)N[C@@H](C(C)C)C(=O)N(C)[C@@H](CC(C)C)C(=O)N[C@@H](C)C(=O)N[C@H](C)C(=O)N(C)[C@@H](CC(C)C)C(=O)N(C)[C@@H](CC(C)C)C(=O)N(C)[C@@H](C(C)C)C(=O)N1C [Compound a), [dihydro-MeBmt]^1-[γ-hydroxy-MeLeu]^4 -Ciclosporin] | 16.3 µg/mL |  |
| C/C=C/C[C@@H](C)[C@@H](O)[C@H]1C(=O)N[C@@H](CC)C(=O)N(C)CC(=O)N(C)[C@@H](C(C)C)C(=O)N[C@@H](C(C)C)C(=O)N(C)[C@@H](CC(C)C)C(=O)N[C@@H](C)C(=O)N[C@H](C)C(=O)N(C)[C@@H](CC(C)C)C(=O)N(C)[C@@H](CC(C)C)C(=O)N(C)[C@@H](C(C)C)C(=O)N1C [Compound b), [MeVal]^4 -Ciclosporin] |  | 5.4 µg/mL |
| C/C=C/C[C@@H](C)[C@@H](O)[C@H]1C(=O)N[C@@H](CC)C(=O)N(C)CC(=O)N(C)[C@@H]([C@@H](C)CC)C(=O)N[C@@H](C(C)C)C(=O)N(C)[C@@H](CC(C)C)C(=O)N[C@@H](C)C(=O)N[C@H](C)C(=O)N(C)[C@@H](CC(C)C)C(=O)N(C)[C@@H](CC(C)C)C(=O)N(C)[C@@H](C(C)C)C(=O)N1C [Compound c), [MeIle]^4 -Ciclosporin] |  | 4.5 µg/mL |
| C/C=C/C[C@@H](C)[C@@H](O)[C@H]1C(=O)N[C@@H](CC)C(=O)N(C)CC(=O)N(C)[C@@H](CC(C)(C)O)C(=O)N[C@@H](C(C)C)C(=O)N(C)[C@@H](CC(C)C)C(=O)N[C@@H](C)C(=O)N[C@H](C)C(=O)N(C)[C@@H](CC(C)C)C(=O)N(C)[C@@H](CC(C)C)C(=O)N(C)[C@@H](C(C)C)C(=O)N1C [Compound e), [γ-hydroxy-MeLeu]^4 -Ciclosporin] | 15.5 µg/mL |  |
| C/C=C/C[C@@H](C)[C@@H](O)[C@H]1C(=O)N[C@@H](CCC)C(=O)N(C)CC(=O)N(C)[C@@H](CC(C)(C)O)C(=O)N[C@@H](C(C)C)C(=O)N(C)[C@@H](CC(C)C)C(=O)N[C@@H](C)C(=O)N[C@H](C)C(=O)N(C)[C@@H](CC(C)C)C(=O)N(C)[C@@H](CC(C)C)C(=O)N(C)[C@@H](C(C)C)C(=O)N1C [Compound f), [Nva]^2-[γ-hydroxy-MeLeu]^4 -Ciclosporin] | 14.0 µg/mL |  |
| C/C=C/C[C@@H](C)[C@@H](O)[C@H]1C(=O)N[C@@H](CC)C(=O)N(C)CC(=O)N(C)[C@@H](CC(C)C)C(=O)N(C)[C@@H](C(C)C)C(=O)N(C)[C@@H](CC(C)C)C(=O)N[C@@H](C)C(=O)N[C@H](C)C(=O)N(C)[C@@H](CC(C)C)C(=O)N(C)[C@@H](CC(C)C)C(=O)N(C)[C@@H](C(C)C)C(=O)N1C [Compound h), [MeVal]^5 -Ciclosporin] | 4.4 µg/mL |  |
| C/C=C/C[C@@H](C)[C@@H](O)[C@H]1C(=O)N[C@@H]([C@@H](C)OC)C(=O)N(C)[C@H](C)C(=O)N(C)[C@@H](CC(C)C)C(=O)N(C)[C@@H](C(C)C)C(=O)N(C)[C@@H](CC(C)C)C(=O)N[C@@H](C)C(=O)N[C@H](C)C(=O)N(C)[C@@H](CC(C)C)C(=O)N(C)[C@@H](CC(C)C)C(=O)N(C)[C@@H](C(C)C)C(=O)N1C [Compound i), [MeOThr]^2-[(D)MeAla]^3-[MeVal]^5 -Ciclosporin] (cyclo(A[dA][NMeL][NMeL][NMeV][MeBmt]T(Me)[dNMeA][NMeL][NMeV][NMeL])) | > 10 µg/mL |  |
| CC[C@@H]1NC(=O)[C@H]([C@H](O)[C@H](C)C/C=C/CO)N(C)C(=O)[C@H](C(C)C)N(C)C(=O)[C@H](CC(C)C)N(C)C(=O)[C@H](CC(C)C)N(C)C(=O)[C@@H](C)NC(=O)[C@H](C)NC(=O)[C@H](CC(C)C)N(C)C(=O)[C@H](C(C)C)NC(=O)[C@H](CC(C)C)N(C)C(=O)CN(C)C1=O [Compound j), [8'-hydroxy-MeBmt]^1 -Ciclosporin] | 10.6 µg/mL |  |
| C/C=C/C[C@@H](C)[C@@H](O)[C@H]1C(=O)N[C@@H](CC)C(=O)N(C)CC(=O)N(C)[C@@H](CC(C)C)C(=O)N[C@@H](C(C)C)C(=O)N(C)[C@@H](C)C(=O)N[C@@H](C)C(=O)N[C@H](C)C(=O)N(C)[C@@H](CC(C)C)C(=O)N(C)[C@@H](CC(C)C)C(=O)N(C)[C@@H](C(C)C)C(=O)N1C [Compound k), [MeAla]^6 -Ciclosporin] | 5.2 µg/mL |  |
| C/C=C/C[C@@H](C)[C@@H](O)[C@H]1C(=O)N[C@@H](CC)C(=O)N(C)CC(=O)N(C)[C@@H](CC(C)C)C(=O)N[C@@H](C(C)C)C(=O)N(C)[C@@H](CC(C)C)C(=O)N[C@@H](C)C(=O)N[C@H](C)C(=O)N(C)[C@@H](CC(C)(C)O)C(=O)N(C)[C@@H](CC(C)C)C(=O)N(C)[C@@H](C(C)C)C(=O)N1C [l), [γ-hydroxy-MeLeu]^9 -Ciclosporin] | > 10 µg/mL |  |
